# Data from ChEMBL document CHEMBL5131391, “One-pot three-component synthesis of novel pyrazolo[3,4-b]pyridines as potent antileukemic agents” (Eur J Med Chem, 2022).
# Legend:
# Type in all cases: functional
# [1] = test system: NCI/ADR-RES; assay: Antiproliferative activity against human NCl/ADR-RES cells assessed as growth inhibition at 10 uM measured after 48 hrs by NCI protocol based SRB assay relative to control; conditions: read-out: GI
# [2] = test system: SK-MEL-5; assay: Antiproliferative activity against human SK-MEL-5 cells assessed as growth inhibition at 10 uM measured after 48 hrs by NCI protocol based SRB assay relative to control; conditions: read-out: GI
# [3] = test system: SF-539; assay: Antiproliferative activity against human SF-539 cells assessed as growth inhibition at 10 uM measured after 48 hrs by NCI protocol based SRB assay relative to control; conditions: read-out: GI
# [4] = test system: MDA-MB-435; assay: Antiproliferative activity against human MDA-MB-435 cells assessed as growth inhibition at 10 uM measured after 48 hrs by NCI protocol based SRB assay relative to control; conditions: read-out: GI
# [5] = test system: OVCAR-4; assay: Antiproliferative activity against human OVCAR-4 cells assessed as growth inhibition at 10 uM measured after 48 hrs by NCI protocol based SRB assay relative to control; conditions: read-out: GI
# [6] = test system: MDA-MB-231; assay: Antiproliferative activity against human MDA-MB-231 cells assessed as growth inhibition at 10 uM measured after 48 hrs by NCI protocol based SRB assay relative to control; conditions: read-out: GI
# [7] = test system: KOPN-8; assay: Antiproliferative activity against human KOPN-8 cells assessed as reduction in cell viability incubated for 72 hrs by resazurin dye based assay; conditions: KOPN-8, 72 h
# [8] = test system: SF-268; assay: Antiproliferative activity against human SF-268 cells assessed as growth inhibition at 10 uM measured after 48 hrs by NCI protocol based SRB assay relative to control; conditions: read-out: GI
# [9] = test system: IGROV-1; assay: Antiproliferative activity against human IGROV-1 cells assessed as growth inhibition at 10 uM measured after 48 hrs by NCI protocol based SRB assay relative to control; conditions: read-out: GI
# [10] = test system: UO-31; assay: Antiproliferative activity against human UO-31 cells assessed as growth inhibition at 10 uM measured after 48 hrs by NCI protocol based SRB assay relative to control; conditions: read-out: GI
# [11] = test system: MCF7; assay: Antiproliferative activity against human MCF7 cells assessed as growth inhibition at 10 uM measured after 48 hrs by NCI protocol based SRB assay relative to control; conditions: read-out: GI
# [12] = test system: NCI-H322M; assay: Antiproliferative activity against human NCI-H322M cells assessed as growth inhibition at 10 uM measured after 48 hrs by NCI protocol based SRB assay relative to control; conditions: read-out: GI
# [13] = test system: SNB-75; assay: Antiproliferative activity against human SNB-75 cells assessed as growth inhibition at 10 uM measured after 48 hrs by NCI protocol based SRB assay relative to control; conditions: read-out: GI
# [14] = test system: SK-MEL-2; assay: Antiproliferative activity against human SK-MEL-2 cells assessed as growth inhibition at 10 uM measured after 48 hrs by NCI protocol based SRB assay relative to control; conditions: read-out: GI
# [15] = test system: ML-2; assay: Antiproliferative activity against human ML-2 cells assessed as reduction in cell viability incubated for 72 hrs by resazurin dye based assay; conditions: ML-2, 72 h
# [16] = test system: Hs-578T; assay: Antiproliferative activity against human Hs-578T cells assessed as growth inhibition at 10 uM measured after 48 hrs by NCI protocol based SRB assay relative to control; conditions: read-out: GI
# [17] = test system: ACHN; assay: Antiproliferative activity against human ACHN cells assessed as growth inhibition at 10 uM measured after 48 hrs by NCI protocol based SRB assay relative to control; conditions: read-out: GI
# [18] = test system: LOX IMVI; assay: Antiproliferative activity against human LOX IMVI cells assessed as growth inhibition at 10 uM measured after 48 hrs by NCI protocol based SRB assay relative to control; conditions: read-out: GI
# [19] = test system: NCI-H522; assay: Antiproliferative activity against human NCI-H522 cells assessed as growth inhibition at 10 uM measured after 48 hrs by NCI protocol based SRB assay relative to control; conditions: read-out: GI
# [20] = test system: MV4-11; assay: Antiproliferative activity against human MV4-11 cells assessed as reduction in cell viability incubated for 72 hrs by resazurin dye based assay; conditions: MV4-11, 72 h
# [21] = test system: RS4-11; assay: Antiproliferative activity against human RS4-11 cells assessed as reduction in cell viability incubated for 72 hrs by resazurin dye based assay; conditions: RS4-11, 72 h
# [22] = test system: KM12; assay: Antiproliferative activity against human KM12 cells assessed as growth inhibition at 10 uM measured after 48 hrs by NCI protocol based SRB assay relative to control; conditions: read-out: GI
# [23] = test system: NCI-H23; assay: Antiproliferative activity against human NCI-H23 cells assessed as growth inhibition at 10 uM measured after 48 hrs by NCI protocol based SRB assay relative to control; conditions: read-out: GI
# [24] = test system: RPMI-8226; assay: Antiproliferative activity against human RPMI-8226 cells assessed as growth inhibition at 10 uM measured after 48 hrs by NCI protocol based SRB assay relative to control; conditions: read-out: GI
# [25] = test system: OVCAR-5; assay: Antiproliferative activity against human OVCAR-5 cells assessed as growth inhibition at 10 uM measured after 48 hrs by NCI protocol based SRB assay relative to control; conditions: read-out: GI
# [26] = test system: HCC 2998; assay: Antiproliferative activity against human HCC 2998 cells assessed as growth inhibition at 10 uM measured after 48 hrs by NCI protocol based SRB assay relative to control; conditions: read-out: GI
# [27] = test system: CAKI-1; assay: Antiproliferative activity against human CAKI-1 cells assessed as growth inhibition measured after 48 hrs by NCI protocol based SRB assay
# [28] = test system: MDA-MB-231; assay: Cytostatic activity in human MDA-MB-231 cells assessed as tumor growth inhibition measured after 48 hrs by NCI protocol based SRB assay
# [29] = test system: DU-145; assay: Antiproliferative activity against human DU-145 cells assessed as growth inhibition measured after 48 hrs by NCI protocol based SRB assay
# [30] = test system: T47D; assay: Antiproliferative activity against human T47D cells assessed as growth inhibition measured after 48 hrs by NCI protocol based SRB assay
# [31] = test system: SN12C; assay: Cytostatic activity in human SN12C cells assessed as tumor growth inhibition measured after 48 hrs by NCI protocol based SRB assay
# [32] = test system: SK-OV-3; assay: Antiproliferative activity against human SK-OV-3 cells assessed as growth inhibition at 10 uM measured after 48 hrs by NCI protocol based SRB assay relative to control; conditions: read-out: GI
# [33] = test system: RXF 393; assay: Antiproliferative activity against human RXF 393 cells assessed as growth inhibition measured after 48 hrs by NCI protocol based SRB assay
# [34] = test system: HT-29; assay: Antiproliferative activity against human HT-29 cells assessed as growth inhibition at 10 uM measured after 48 hrs by NCI protocol based SRB assay relative to control; conditions: read-out: GI
# [35] = test system: SK-MEL-2; assay: Cytostatic activity in human SK-MEL-2 cells assessed as tumor growth inhibition measured after 48 hrs by NCI protocol based SRB assay
# [36] = test system: 786-0; assay: Cytostatic activity in human 786-0 cells assessed as tumor growth inhibition measured after 48 hrs by NCI protocol based SRB assay
# [37] = test system: HCT-15; assay: Cytostatic activity in human HCT-15 cells assessed as tumor growth inhibition measured after 48 hrs by NCI protocol based SRB assay
# [38] = read-out: LC50 (the source's name)
SMILES,inhibition of growth at 10 µM [1] [%],inhibition of growth at 10 µM [2] [%],inhibition of growth at 10 µM [3] [%],inhibition of growth at 10 µM [4] [%],inhibition of growth at 10 µM [5] [%],inhibition of growth at 10 µM [6] [%],inhibition of growth at 10 µM [8] [%],inhibition of growth at 10 µM [9] [%],inhibition of growth at 10 µM [10] [%],inhibition of growth at 10 µM [11] [%],inhibition of growth at 10 µM [12] [%],inhibition of growth at 10 µM [13] [%],inhibition of growth at 10 µM [14] [%],inhibition of growth at 10 µM [16] [%],inhibition of growth at 10 µM [17] [%],inhibition of growth at 10 µM [18] [%],inhibition of growth at 10 µM [19] [%],IC50 [20] [µM],inhibition of growth at 10 µM [22] [%],inhibition of growth at 10 µM [24] [%],further results
Cc1ccc(-c2nc3c(c(-c4ccccc4)nn3-c3ccccc3)c(-c3ccc(O)cc3)c2C#N)cc1,19,23,85,36,18,55,40,18,61,74,12,60,22,77,33,88,31,3.3,45,79,IC50 [7]: 0.3 µM; IC50 [15]: 1.4 µM; IC50 [21]: 2.7 µM; inhibition of growth at 10 µM [23]: 33%
N#Cc1c(-c2ccc(Cl)cc2)nc2c(c(-c3ccccc3)nn2-c2ccccc2)c1-c1ccc(O)cc1,43,44,89,52,36,64,54,31,70,81,30,58,26,74,44,74,45,25.1,59,83,inhibition of growth at 10 µM [25]: 17%; inhibition of growth at 10 µM [26]: 16%; inhibition of growth at 10 µM [23]: 52%
COc1cc(-c2c(C#N)c(-c3ccccc3)nc3c2c(-c2ccccc2)nn3-c2ccccc2)ccc1O,22,21,18,32,34,28,27,13,32,53,17,20,–,32,13,26,47,> 50,35,40,inhibition of growth at 10 µM [23]: 26%
N#Cc1c(-c2ccccc2)nc2c(c(-c3ccccc3)nn2-c2ccccc2)c1-c1ccc(O)cc1,30,42,77,49,28,77,45,29,73,86,34,67,28,85,58,148,99,26.1,53,87,"GI50 [27]: 2.48 µM; CC50 [27, 38]: 23.8 µM; TGI [28]: 3.31 µM; GI50 [29]: 2.62 µM; CC50 [29, 38]: 37.7 µM; inhibition of growth at 10 µM [25]: 19%; GI50 [30]: 3.05 µM; CC50 [30, 38]: > 100 µM; TGI [31]: 3.04 µM; inhibition of growth at 10 µM [32]: 29%; GI50 [33]: 1.03 µM; CC50 [33, 38]: 5.37 µM; inhibition of growth at 10 µM [34]: 16%; inhibition of growth at 10 µM [26]: 28%; TGI [35]: 5.65 µM; TGI [36]: 5.35 µM; TGI [37]: 3.79 µM; inhibition of growth at 10 µM [23]: 56%"
N#Cc1c(-c2ccco2)nc2c(c(-c3ccccc3)nn2-c2ccccc2)c1-c1ccc(O)cc1,24,13,18,38,23,18,33,16,–,53,19,29,30,47,28,–,81,13.8,58,45,IC50 [7]: 10 µM; inhibition of growth at 10 µM [32]: 54%; IC50 [15]: 12.8 µM; inhibition of growth at 10 µM [34]: 70%; IC50 [21]: 15.1 µM
